One series can be described thus: clinical. The note with it: human, in vivo; for Cmax: Mean.
In a further series the test system is humans. Put plainly: Clinical experience with sublingual apomorphine tablets in humans (efficacy, side effects).
Setting [1] is: humans, 2 to 4 mg sublingual tablets, clinical experience.

Consider `CN1CCc2cccc3c2[C@H]1Cc1ccc(O)c(O)c1-3` [Apomorphine, (R)-5,6,6a,7-tetrahydro-6-methyl-4H-dibenzo-[de,g]quinoline-10,11-diol], for which, in “clinical” (sc, 1 mg), the AUC(0-inf) (commonly the area under the concentration-time curve extrapolated to infinity) came out at 3.39 ng·h/mL; the Tmax (as a rule, the time from dosing to the highest level) was 20.4 min; the concentration peaked (Cmax) at 3.22 ng/mL. In addition, in “clinical” (male, 2 mg), the AUC(0-inf) is 1.23 ng·h/mL; the Tmax is 44.4 min; the “cmax, Mean” value was 0.70 ng/mL; the Cmax – broadly, the maximum level reached in the sampled fluid or tissue – is roughly 0.7 ng/mL. Moreover, in “clinical” (male, 4 mg), the AUC(0-inf) came to 2.37 ng·h/mL; the Tmax was found to be 43.2 min; the “cmax, Mean” value was 1.25 ng/mL; the peak concentration (Cmax) was roughly 1.25 ng/mL. For the same compound, in “clinical” (male, 5 mg), the AUC(0-inf) came out at 2.92 ng·h/mL; the Tmax turned out to be 40.8 min; the “cmax, Mean” value is 1.70 ng/mL; the Cmax was roughly 1.7 ng/mL. Besides, in the series “clinical” (male, 6 mg), the AUC(0-inf) was determined as 3.6 ng·h/mL; the time of peak concentration (Tmax) was found to be 39.6 min; the “cmax, Mean” value stood at 1.91 ng/mL; the Cmax is roughly 1.91 ng/mL. In the series with humans (setting [1]), the incidence of emesis is listed as 2% and the incidence of nausea entry is “about 13%”. Further, in the series with humans (up to 8 mg of apomorphine tablets), the tolerability in humans entry is “well tolerated”. Moreover, in the series with humans (up to a 6 mg dose via sublingual tablet), the side-effects in humans entry was “minimal side-effects”. Further, in the series on humans (up to a 6 mg dose via sublingual tablet, sexual dysfunction), the efficacy in humans entry is “good efficacy”.

The values are drawn from patent publication US20020006933A1 (TAP Holdings, Inc., priority 2000, published 2002).
